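GI50: concentration for 50% inhibition of growth. Definition used: TGI = concentration required for complete inhibition of growth.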
Columns and labels:
Assay in all cases: NCI anticancer screen, dose series, 384-well format
OVCAR-8 ovarian = test system: OVCAR-8 ovarian
M14 melanoma = test system: M14 melanoma
SF-295 CNS = test system: SF-295 CNS
MDA-MB-435 melanoma = test system: MDA-MB-435 melanoma
MDA-MB-231 breast = test system: MDA-MB-231 breast
HOP-92 NSCLC = test system: HOP-92 NSCLC
SK-MEL-5 melanoma = test system: SK-MEL-5 melanoma
CAKI-1 renal = test system: CAKI-1 renal
COLO 205 colon = test system: COLO 205 colon
HCC-2998 colon = test system: HCC-2998 colon
OVCAR-4 ovarian = test system: OVCAR-4 ovarian
MALME-3M melanoma = test system: MALME-3M melanoma
TK-10 renal = test system: TK-10 renal

SMILES: Cn1cc(-c2ccc3c(c2)CCN3C(=O)Cc2cccc(C(F)(F)F)c2)c2c(N)ncnc21
- GI50 (OVCAR-8 ovarian): 5.73 µM
- TGI (OVCAR-8 ovarian): 54.7 µM
- GI50 (M14 melanoma): 5.69 µM
- TGI (M14 melanoma): 21.5 µM
- GI50 (SF-295 CNS): 6.87 µM
- TGI (SF-295 CNS): 20.5 µM
- GI50 (MDA-MB-435 melanoma): 8.32 µM
- TGI (MDA-MB-435 melanoma): 29.8 µM
- GI50 (MDA-MB-231 breast): 4.91 µM
- TGI (MDA-MB-231 breast): 15.6 µM
- GI50 (HOP-92 NSCLC): 3.52 µM
- TGI (HOP-92 NSCLC): 13.3 µM
- GI50 (SK-MEL-5 melanoma): 3.86 µM
- TGI (SK-MEL-5 melanoma): 9.56 µM
- GI50 (CAKI-1 renal): 2.14 µM
- TGI (CAKI-1 renal): 12.8 µM
- GI50 (COLO 205 colon): 7.33 µM
- TGI (COLO 205 colon): 21 µM
- GI50 (HCC-2998 colon): 15.5 µM
- TGI (HCC-2998 colon): 29.6 µM
- GI50 (OVCAR-4 ovarian): 11.2 µM
- TGI (OVCAR-4 ovarian): 25.1 µM
- GI50 (MALME-3M melanoma): 2.99 µM
- TGI (MALME-3M melanoma): 13.7 µM
- GI50 (TK-10 renal): 7.63 µM
- TGI (TK-10 renal): 26.1 µM
